The source of these data is patent US20230172936A1, “VCP/p97 INHIBITOR FOR THE TREATMENT OF CANCER” (Cleave Therapeutics, Inc., priority 2020, published 2023).

Each structure is given as a SMILES string. pIC50: −log10 of the molar value.

Data set [1] can be described thus: Adverse events and visual impairment in Phase I subjects.
In the next data set the target is p97 (Homo sapiens, UniProt P55072). Briefly: P97 inhibition assay (ADP glo). In kind it is biochemical. On the procedure: The p97 assay is an assay used to determine inhibitory activity of compounds against the p97 complex. Inhibition of activity of the p97 proteosome complex can enable apoptosis and cause elimination of neoplastic cells (cancer cells). The assay follows that of Christianson in Nat. Cell Biol., (2011) 14:93. The reagents used for the p97 assay include an assay buffer which is a mixture of 50 mM TRIS pH 7.5, 20 mM MgCI˜, 0.02% TX-100, 1 mM DTT and 0.2% (v/v) glycerol. The well plate is a Corning 3674, 384w plate. The identification kit is an ADP glo kit (Promega): stop buffer, detection reagent.
p97, sequence (P55072 whole entry): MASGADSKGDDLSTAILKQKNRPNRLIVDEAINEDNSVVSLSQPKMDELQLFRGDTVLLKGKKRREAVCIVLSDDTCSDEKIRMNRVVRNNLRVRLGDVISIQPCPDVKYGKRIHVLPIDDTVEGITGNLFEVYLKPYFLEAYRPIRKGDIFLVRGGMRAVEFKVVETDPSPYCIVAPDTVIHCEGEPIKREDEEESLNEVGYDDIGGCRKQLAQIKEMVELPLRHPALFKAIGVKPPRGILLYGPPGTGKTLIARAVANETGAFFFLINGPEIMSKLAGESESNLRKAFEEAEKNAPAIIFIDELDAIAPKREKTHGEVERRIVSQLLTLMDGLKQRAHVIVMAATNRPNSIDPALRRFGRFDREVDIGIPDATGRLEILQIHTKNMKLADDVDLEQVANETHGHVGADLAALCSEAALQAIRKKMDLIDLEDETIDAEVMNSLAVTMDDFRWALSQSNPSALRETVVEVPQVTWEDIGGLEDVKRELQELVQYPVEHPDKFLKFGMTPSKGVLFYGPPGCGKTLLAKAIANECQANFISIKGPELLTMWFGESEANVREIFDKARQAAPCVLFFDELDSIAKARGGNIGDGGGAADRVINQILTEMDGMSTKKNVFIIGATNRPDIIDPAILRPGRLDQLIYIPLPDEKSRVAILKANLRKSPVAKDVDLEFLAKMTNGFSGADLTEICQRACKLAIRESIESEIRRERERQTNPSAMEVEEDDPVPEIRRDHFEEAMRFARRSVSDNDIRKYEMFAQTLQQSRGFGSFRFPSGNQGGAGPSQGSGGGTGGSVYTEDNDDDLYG
The assay is conducted as follows: • Serial dilute compound in DMSO in a 1:3.33-fold 10 point serial dilution. • In each well of 384w plate add the following reagents: 0.5 μL compound serial diluted in DMSO (Final Conc. 10%) 2 μL ATP (Final Conc.=20 μM, diluted in assay buffer) 2.5 μL p97 (Final Conc.=20 nM, diluted in assay buffer). • Incubate at 37° C. for 15 min. • Add 5 μL of stop buffer, incubate at RT for 40 min. • Add 10 μL of detection reagent, incubate at RT for 30 min. • Read luminescence on Envision plate reader. […]

The subject of the next data set is MLL-AF9 cells. Briefly: MLL-AF9 allogenic disseminated mouse model of AML. To be noted: 90 mg/kg oral gavage, 4 days on/3 days off, vs vehicle. The class given is in vivo, mice. Here is the method:
Compound 1 was tested in the MLL-AF9 allogenic disseminated mouse model of AML. 200,000 MLL-AF9-cells were injected via tail vein into 6-week-old C57BL/6 male mice (The Jackson Laboratory). Starting at day 8 after cell injection, mice were treated with Compound 1 delivered through oral gavage (90 mg/kg) or vehicle (0.5% methylcellulose) on a dosing schedule of 4 days “on” (administered on each of 4 days sequentially) followed by 3 days “off” (no administration on each of 3 sequential days) for 2 full cycles (two weeks total of 4 on/3 off).
The proportion of MLL-AF9 cells in peripheral blood (n=6 mice per group) was measured at 12 days post-injection of MLL-AF9 cells using flow cytometry. Murine peripheral blood, bone marrow and spleen were collected from each organ, washed with PBS-0.1% BSA-2 mM EDTA and lysed for 10 minutes with red blood cell lysis buffer (Sigma). After two washing steps with PBS-0.1% BSA-2 mM EDTA, bone marrow cells were stained for 30 minutes at 4° C. with corresponding cell surface antibodies for CD45 (CD45 […], Invitrogen). Cells were then washed twice with PBS-0.1% BSA-2 mM EDTA before analysis of 10,000 cells gated for CD45+(high) with BD FACSCanto II (BD Biosciences) to isolate the AML blast population. Statistical significance determined using Mann-Whitney test in comparison with vehicle. Error bars represent mean±SEM. […]

Another data set relates to CTG-2456. Briefly: Ex-vivo cytotoxicity by Cell Titer Glo. The class given is cell-based. To be noted: Homo sapiens, 144 h; CTG-2456, 6 days. On the procedure: (§1) Acute myelogenous leukemia (AML) is the most common acute leukemia in adults. A hematologic cancer, the disease is highly heterogeneous, with multiple subtypes. About 30% of AML cases harbor a FLT3/ITD mutation making the disease highly proliferative and more aggressive with a high risk of relapse.
(§2) Triplicate wells with media only and duplicate wells of vehicle (0.2% DMSO) were used as negative controls. […] To measure proliferation, untreated cells at days 0 and 6 were evaluated via Cell Titer Glo.
(§3) Protocol: • 1. AML cells were thawed and resuspended in enriched media composed of StemSpan™ Serum-Free Expansion Media (SFEM), 2% heat-inactivated FBS, StemSpan™ CC110 and recombinant human IL-3. • 2. 20,000 cells/well in 100 μL volume were plated on study day 0. • 3. […] Cells were incubated in the presence of drug for 6 days. • 5. On day 6, plates were removed from the incubator and equilibrated to room temperature for 20 minutes. 100 μL/well Cell Titer Glo was added to each well and incubated for 10 minutes before plate reading. • 6. Luminescence was recorded using Tecan Infinite M Plex plate reader.

Another data set relates to CTG-2454. Briefly: Ex-vivo cytotoxicity by Cell Titer Glo. The following applies: Homo sapiens, 144 h; CTG-2454, 6 days. In kind it is cell-based. Here is the method: as §1, §2, §3
A general note: In ATP-based viability assays light output follows the ATP content of the culture.

A further data set concerns CTG-2702. Kind of data set: Ex-vivo cytotoxicity by Cell Titer Glo. The class given is cell-based. The following applies: Homo sapiens, 144 h; CTG-2702, 6 days. Here is the method: as §1, §2, §3
The test system of another data set is CTG-2240. Kind of data set: Ex-vivo cytotoxicity by Cell Titer Glo. The class given is cell-based. To be noted: Homo sapiens, 144 h; CTG-2240, 6 days. Here is the method:
as §1, §2, §3

Another data set deals with CTG-2701. Kind of data set: Ex-vivo cytotoxicity by Cell Titer Glo. The class given is cell-based. The following applies: Homo sapiens, 144 h; CTG-2701, 6 days. On the procedure: as §1, §2, §3
In a further data set the test system is CTG-2238. Briefly: Ex-vivo cytotoxicity by Cell Titer Glo. To be noted: Homo sapiens, 144 h; CTG-2238, 6 days. In kind it is cell-based. On the procedure:
as §1, §2, §3

The test system of another data set is CTG-2239. Briefly: Ex-vivo cytotoxicity by Cell Titer Glo. The class given is cell-based. To be noted: Homo sapiens, 144 h; CTG-2239, 6 days. On the procedure:
as §1, §2, §3

A further data set concerns CTG-2228. Briefly: Ex-vivo cytotoxicity by Cell Titer Glo. In kind it is cell-based. The following applies: Homo sapiens, 144 h; CTG-2228, 6 days. Here is the method:
as §1, §2, §3

The subject of another data set is CTG-2242. Kind of data set: Ex-vivo cytotoxicity by Cell Titer Glo. The class given is cell-based. To be noted: Homo sapiens, 144 h; CTG-2242, 6 days. Here is the method:
as §1, §2, §3

The subject of a further data set is CTG-2452. Kind of data set: Ex-vivo cytotoxicity by Cell Titer Glo. In kind it is cell-based. The following applies: Homo sapiens, 144 h; CTG-2452, 6 days. On the procedure:
as §1, §2, §3

The test system of a further data set is CTG-2227. Briefly: Ex-vivo cytotoxicity by Cell Titer Glo. To be noted: Homo sapiens, 144 h; CTG-2227, 6 days. In kind it is cell-based. Here is the method: as §1, §2, §3

For the compound `Cc1cc2c(C(N)=O)cccc2n1-c1nc2c(c(NCc3ccccc3)n1)CCCN2` [Compound 1, 1-(4-(Benzylamino)-5,6,7,8-tetrahydropyrido[2,3-d]pyrimidin-2-yl)-2-methyl-1H-indole-4-carboxamide], the adverse events entry in data set [1] (25 mg QD, two subjects) was “No adverse events”. Besides, the “symptoms of visual impairment” value in [1] (25 mg QD, two subjects) is given as “no symptoms of visual impairment”. In data set [1] (any dose levels, highest level 275 mg QD), the “symptoms of visual impairment or other visual events” value is “No symptoms of visual impairment or other visual events”. Further, the “symptoms of visual impairment or other visual adverse events” value in data set [1] (at equivalent plasma exposure of Compound 1 and CB-5083) is reported as “no symptoms of visual impairment or other visual adverse events”. In addition, the pIC50 (as a rule, the negative decadic logarithm of the IC50, by convention in mol/L) was greater than 7.52 against p97; 6.67 with CTG-2456; 6.68 in the data set with CTG-2454; 6.37 with CTG-2702; 6.30 in the data set with CTG-2240; 6.40 in the data set on CTG-2701. Also, the pIC50 in the data set with CTG-2238 was 6.63; in the data set with CTG-2239, 6.40; with CTG-2228 it was 6.25; in the data set with CTG-2242, 6.30; with CTG-2452, 6.29; with CTG-2227 it was 6.56. Further, in the data set on MLL-AF9 cells (2 cycles), the overall survival entry is “improved the overall survival”. For the same compound, the “circulating blast counts (MLL-AF9 cells in peripheral blood)” value in the data set on MLL-AF9 cells (12 days post-injection) is on record as “reduced circulating blast counts”.
